Here are results for one compound from ChEMBL document CHEMBL1154585, “Lorneamides A and B: two new aromatic amides from a southern Australian marine actinomycete” (2000).

Molecules are shown by their SMILES.

The experiment has as its system Bacillus subtilis. Briefly: Antibacterial activity against Bacillus subtilis. Type of experiment: functional.

With `CCCC(O)/C=C/c1cc(C)ccc1/C=C/CC(N)=O` (stereo unspecified) [LORNEAMIDE A], the LD99 was 50 µg/mL.
